Key:
[1] = system: skeletal muscle; assay: AICAriboside infusion: nucleotide, nucleoside and base content of skeletal (gastrocnemius) muscle biopsies; assay type: in vivo, mongrel dogs; design: AMP / ADP / ATP / TAN / IMP / Hyp (hypoxanthine): unit not given beside the values; conditions: for TAN: total adenine nucleotide
[2] = AICAriboside plasma concentration during infusion; assay type: in vivo, mongrel dogs; conditions: dog, after 42 min of infusion, 100 mM at 1.9 ml/min into left atrium
Description: (§1) Animal Preparation--Seven adult mongrel dogs were anesthetized intramuscularly with 40 mg of morphine sulfate and intravenously with 80 mg/kg of chloralose, an endotraceal tube was inserted, and ventilation was maintained with an Emerson volume-cycled respirator and 100% oxygen. The heart was exposed through a left lateral thoracotomy, polyvinyl chloride catheters (3-mm outer diameter) were inserted into the left atrium and into the aorta through the right femoral artery, and a Statham TTQ electromagnetic flow meter probe was positioned around the ascending aorta. The aortic pressure catheter was connected to a Statham P23Db transducer (Statham Instruments, Inc., Oxnard, CA) with the zero reference at the midchest level. Aortic flow was measured with a Howell Instruments Series 1000 Flowmeter, and stroke volume and cardiac output were calculated from the aortic flow measurement. All hemodynamic data were monitored continuously throughout the course of the study. […]
(§2) After hemodynamic parameters had stabilized, regional myocardial blood flow was measured by injecting radioactively labled microspheres. […] Venous and arterial blood samples were also obtained at 42 min. of infusion, and regional myocardial blood flow was measured at 10 and 39 min. of AICAriboside infusion. […]

[3] = system: cardiac and skeletal muscle; assay: Creatine phosphate content of cardiac and skeletal muscle; assay type: in vivo, mongrel dogs; conditions: throughout the study (6.8±0.4 and 10.6±0.5 μmol/g at beginning)
Description: as §1, §2

[4] = system: myocardium; assay: Regional myocardial blood flow, coronary occlusion and reperfusion; assay type: in vivo, dogs; conditions: any time point
Description: Catheters were placed in the left atrium and aorta, and a snare positioned around the left anterior descending coronary artery in 15 open-chest dogs. Regional myocardial blood flow was measured and transmural tissue samples were obtained using known techniques. Blood flow measurements and tissue samples were obtained prior to and just before release of a 12-minute coronary occlusion. The chest was closed and the animals allowed to awaken. Twenty-four hours later, the animals were anesthetized, the chest opened, blood flow measured, and tissue samples obtained. No hemodynamic measurements were made on the animals.
In seven animals, 200 mM AICAriboside (Sigma Chemical Co.) was infused into the left atrial catether at either 14 μmol/min (n=2) or 37 μmol/min (n=5) beginning with coronary occlusion and continuing for 24 hours. Eight control animals were infused with an equal volume of saline over 24 hours.
All comparisons between AICAriboside and saline treated animals were done by unpaired analyses.

[5] = system: serum urate; assay: Serum urate concentrations; assay type: in vivo, mongrel dogs; conditions: for Serum urate concentration: P < 0.05 vs control
Description: (§3) Animal Preparation--Seven adult mongrel dogs were anesthetized intramuscularly with 40 mg of morphine sulfate and intravenously with 80 mg/kg of chloralose, an endotraceal tube was inserted, and ventilation was maintained with an Emerson volume-cycled respirator and 100% oxygen. The heart was exposed through a left lateral thoracotomy, polyvinyl chloride catheters (3-mm outer diameter) were inserted into the left atrium and into the aorta through the right femoral artery, and a Statham TTQ electromagnetic flow meter probe was positioned around the ascending aorta. The aortic pressure catheter was connected to a Statham P23Db transducer (Statham Instruments, Inc., Oxnard, CA) with the zero reference at the midchest level. Aortic flow was measured with a Howell Instruments Series 1000 Flowmeter, and stroke volume and cardiac output were calculated from the aortic flow measurement. All hemodynamic data were monitored continuously throughout the course of the study. In 5 of the animals, the skin of the left dorsal hindlimb was opened and the gastrocnemius muscle was identified for subsequent tissue sampling.
(§4) After hemodynamic parameters had stabilized, regional myocardial blood flow was measured by injecting radioactively labled microspheres. Tissue samples were obtained from the left ventricle and from the left gastrocnemius muscle. A venous blood sample was also obtained. AICAriboside (100 mM) was then infused into the left atrium at 1.9 ml/min. Repeat tissue samples were taken from the left ventricle at 15, 30 and 42 min. of infusion, and tissue samples were taken from the gastrocnemius muscle at 30 min. of infusion. Venous and arterial blood samples were also obtained at 42 min. of infusion, and regional myocardial blood flow was measured at 10 and 39 min. of AICAriboside infusion. AICAriboside infusion was terminated after 42 min., and tissue samples were taken from the left ventricle at 10, 20, 30 and 60 min. postinfusion and from the left gastrocnemius muscle at 2, 22 and 60 min. postinfusion. Venous blood samples were obtained at 10, 30 and 60 min. after AICAriboside infusion. In 4 of the 7 dogs, 400 mM formate was infused intravenously at the rate of 1.9 ml/min. for 42 min. prior to and during AICAriboside infusion. These same animals also received 6 mg of folinic acid as an intravenous bolus 30 min. prior to and 15 min. after initiating AICAriboside infusion.
(§5) Other Methods--Serum urate was determined by the enzymatic spectrophotometric method as previously described in Liddle et al., J. Lab. Clin. Med., 54, 909-913 (1959).

[6] = Serum urate concentrations; assay type: in vivo, mongrel dogs; conditions: dog, in vivo; of 8 mmol infused, during 42 min; minimal estimate from serum urate increase and total body water; read-out: infused AICAriboside metabolized to purine nucleotides and subsequently catabolized
Description: as §3, §4, §5

[7] = 2 min postinfusion, P < 0.05 vs control
[8] = 30 min of AICAriboside infusion
[9] = 30 min of AICAriboside infusion, P < 0.05 vs control

Structure (SMILES): NC(=O)c1ncn([C@@H]2O[C@H](CO)[C@@H](O)[C@H]2O)c1N [AICAriboside, 5-amino-4-imidazolecarboxamide riboside]
- AMP ([1]; 2 min postinfusion): 0.016 ± 0.002
- Hyp (hypoxanthine) ([1]; 2 min postinfusion): 0.022 ± 0.009
- Ino (inosine) ([1]; 2 min postinfusion): 0.024 ± 0.008
- ADP [1, 7]: 0.65 ± 0.06
- ATP [1, 7]: 4.68 ± 0.45
- IMP [1, 7]: 0.046 ± 0.012
- ADP ([1]; 22 min postinfusion): 0.59 ± 0.03
- AMP ([1]; 22 min postinfusion): 0.014 ± 0.003
- ATP ([1]; 22 min postinfusion): 4.34 ± 0.21
- Hyp (hypoxanthine) ([1]; 22 min postinfusion): 0.021 ± 0.008
- Ino (inosine) ([1]; 22 min postinfusion): 0.024 ± 0.011
- IMP ([1]; 22 min postinfusion, P < 0.05 vs control): 0.045 ± 0.016
- ADP [1, 8]: 0.53 ± 0.04
- AMP [1, 8]: 0.016 ± 0.009
- ATP [1, 8]: 3.92 ± 0.23
- Hyp (hypoxanthine) [1, 9]: 0.024 ± 0.007
- IMP [1, 9]: 0.050 ± 0.012
- Ino (inosine) [1, 9]: 0.035 ± 0.009
- ADP ([1]; 60 min postinfusion): 0.56 ± 0.05
- AMP ([1]; 60 min postinfusion): 0.018 ± 0.007
- ATP ([1]; 60 min postinfusion): 3.60 ± 0.41
- Hyp (hypoxanthine) ([1]; 60 min postinfusion): 0.041 ± 0.017
- Ino (inosine) ([1]; 60 min postinfusion): 0.055 ± 0.031
- IMP ([1]; 60 min postinfusion, P < 0.05 vs control): 0.043 ± 0.015
- increase in IMP content ([1]; AICAriboside infusion): 6-7 fold
- guanine nucleotide content ([1]; not statistically significant): tended to increase
- content of inosine and hypoxanthine ([1]; throughout infusion and up to 60 min thereafter): consistently elevated
- content of NAD^+ ([1]; throughout infusion, did not vary): 0.32 ± 0.04 µmol/g
- TAN [1, 7]: 5.34 ± 0.51
- TAN ([1]; 22 min postinfusion): 4.94 ± 0.23
- TAN [1, 8]: 4.47 ± 0.27
- TAN ([1]; 60 min postinfusion): 4.18 ± 0.44
- concentration at 0.7 h [2]: 336 ± 26 µM
- creatine phosphate content [3]: did not vary significantly
- regional flow vs saline group [4]: no differences
- Serum urate concentration ([5]; 10 min postinfusion): 3.5 ± 0.5 mg/dL
- Serum urate concentration ([5]; 30 min postinfusion): 2.9 ± 0.2 mg/dL
- Serum urate concentration ([5]; 42 min of AICAriboside infusion): 3.5 ± 0.4 mg/dL
- Serum urate concentration ([5]; 60 min postinfusion): 2.40 ± 0.4 mg/dL
- increase in mean serum urate concentration ([5]; following infusion of 8 mmol of AICAriboside): 3.7 fold
- metabolised at 0.7 h [6]: ≥ 25%

From US4575498A, “Method for restoring depleted purine nucleotide pools” (priority 1983, dated 1986)
